Assay results from patent US20260198495A1, “BINARY INSECTICIDE COMPOSITION AND USE THEREOF” (SHENYANG SINOCHEM AGROCHEMICALS R & D CO., LTD., priority 2022, published 2026).

Assays:
Assay type in all cases: in vivo
[1] = tested on: 3rd-instar larvae of Spodoptera exigua Hübner; assay: Joint toxicity (LC50, CTC) of I-72 + indoxacarb, leaf-disk dipping, Example 1, Table 1; details: Spodoptera exigua, cabbage leaf-disk dipping, 72 h, A = compound I-72, B = indoxacarb, read-out: LC50
Description: Test subject: 3rd-instar larvae of Spodoptera exigua Hübner, a sensitive strain reared indoors.
Test conditions: temperature: 24-26° C., humidity: RH 60%, and illumination: L:D=14:10.
Preparation method: the test pesticides were accurately weighed respectively with an electronic analytical balance. After the two technical materials were respectively added into an appropriate amount of solvent and completely dissolved, the stock solution of the required concentration was prepared with water containing 0.1% Tween 80. The stock solutions of the two active ingredients were mixed in a certain ratio to prepare a mixed solution, which was then diluted respectively into a series of pesticide solutions with a certain concentration gradient according to the experimental design dosage.
Experimental method: the dipping method was adopted. […]
The co-toxicity coefficient (CTC value) of the mixture was calculated according to the following formula:
[formula] • in the formula: ATI-measured toxicity index of the mixture; S-LC50 of the standard pesticide; and M-LC50 of the mixture. […]
[formula] • in the formula: CTC-co-toxicity coefficient; ATI-measured toxicity index of the mixture; and TTI-theoretical toxicity index of the mixture. • CTC-co-toxicity coefficient • ATI-measured toxicity index of the mixture • TTI-theoretical toxicity index of the mixture

Empoasca pirisuga = assay: Field efficacy trial of I-72 and Beauveria bassiana in a tea garden, Example 88, Table 88; details: spraying
Description: This trial was performed in a tea garden in Yuhang District, Hangzhou. The spraying method was used for pesticide application. The investigation method was to take samples at 5 points, with 2 fixed plants at each point. A total of 10 plants were investigated in each plot, and the trial was replicated four times. The number of Empoasca vitis nymphs on the back of 100 tender leaves in each plot was randomly investigated. The amount of the pesticide solution sprayed was 75 L per mu. The base number was investigated before the pesticide application, and the number of live Empoasca pirisuga in each treatment sample point was investigated 3, 7 and 14 days after the pesticide application. The calculation method for the efficacy of the test pesticides was the same as that in Example 38.
Test pesticides: A: wettable powder of Beauveria bassiana with 40 billion spores/gram (Jiangxi Tianren Ecology Co., Ltd.); and B: compound I-72 (dissolved in acetone, 0.1% Tween 80 was added, and a 10% stock solution was prepared for use).

[2] = tested on: Frankliniella occidentalis Pergande; assay: Joint toxicity of I-72 + organophosphorus insecticides, leaf dipping, Example 14, Table 14; details: foliar, kidney bean leaf dipping, 48 h, A = compound I-72, B = triazophos, read-out: LC50
Description: Test target: Frankliniella occidentalis Pergande, a sensitive strain reared indoors.
Experimental method: first, kidney bean leaves were selected and dipped in the prepared pesticide solution for 10 s in the order from low dosage to high dosage according to the experimental design. After natural air-drying in the shade, they were placed in a 9-cm-diameter Petri dish with filter paper, and uniform and healthy test insects were introduced, with about 20 insects for each treatment and 3 replicates for each treatment. In addition, a blank control was set up.
The treated test materials were placed in an observation room, and the temperature, humidity and illumination of the observation room could be adjusted as needed. The number of dead and live insects was investigated 48 hours later.

[3] = tested on: Bemisia tabaci (Gennadius) nymphs; assay: Joint toxicity of I-72 + thiacloprid, Example 71, Table 71; details: A = compound I-72, B = thiacloprid, cotton leaf-disk spraying, 96 hours, read-out: LC50
Description: Test target: Bemisia tabaci (Gennadius) nymphs, a sensitive strain reared indoors.
(§1) Preparation of the pesticide solution: according to different test requirements, the test samples were accurately weighed respectively with an electronic analytical balance. The technical pesticides were dissolved in acetone, and then diluted with 0.1% Tween 80 water into a series of pesticide solutions with a certain concentration gradient according to the experimental design dosage.
Experimental method: first, cotton leaves with neat and consistent Bemisia tabaci (Gennadius) nymphs were selected and made into leaf disks, with about 20 insects on each leaf disk. Then, they were evenly sprayed with the pesticide solution in the order from low dosage to high dosage according to the experimental design, with 1.5 mL for each leaf and 3 replicates for each treatment. In addition, a blank control was set up.
(§2) The treated test materials were placed in an observation room, and the temperature, humidity and illumination of the observation room could be adjusted as needed. The number of dead and live insects was investigated 96 hours later. […] Then, the co-toxicity coefficient of each ratio was calculated using the Sun Y-P method to evaluate the mixing effect (the same as in Example 1).

[4] = tested on: 3rd-instar larvae of Plutella xylostella; assay: Joint toxicity of I-72 + chlorpyrifos, leaf-disk dipping, Example 16, Table 16; details: 3rd-instar larvae, cabbage leaf-disk dipping, 72 h, A = compound I-72, B = chlorpyrifos, read-out: LC50
Description: Test target: 3rd-instar larvae of Plutella xylostella.
as §1
Experimental method: first, fresh cabbage leaves cultivated in the greenhouse were selected. The cabbage leaves were made into circular leaf disks with a diameter of 3 cm using a puncher and dipped in the prepared pesticide solution for 10 s in the order from low dosage to high dosage according to the experimental design. After natural air-drying in the shade, they were placed in a 9-cm-diameter Petri dish with filter paper, and uniform and healthy test insects were introduced, with 10 insects for each treatment and 3 replicates for each treatment. In addition, a blank control was set up.
as §2, with “needed.” for “needed. The number of dead and live insects was investigated 96 hours later.”

CN(C(=O)c1ccc2c(c1)OC(F)(F)O2)c1cccc(C(=O)Nc2c(Br)cc(C(F)(C(F)(F)F)C(F)(F)F)cc2OC(F)F)c1F [Compound I-72]
LC50 [1]: 0.227 µg/mL
Control efficacy 3 days after pesticide application (Empoasca pirisuga; dose 15 ml): 57.0%
Control efficacy 7 days after pesticide application (Empoasca pirisuga; dose 15 ml): 75.8%
Control efficacy 14 days after pesticide application (Empoasca pirisuga; dose 15 ml): 74.2%
Control efficacy 3 days after pesticide application (Empoasca pirisuga; dose 30 ml): 57.5%
Control efficacy 7 days after pesticide application (Empoasca pirisuga; dose 30 ml): 77.7%
Control efficacy 14 days after pesticide application (Empoasca pirisuga; dose 30 ml): 79.3%
Control efficacy 3 days after pesticide application (Empoasca pirisuga; dose 45 ml): 62.5%
Control efficacy 7 days after pesticide application (Empoasca pirisuga; dose 45 ml): 78.1%
Control efficacy 14 days after pesticide application (Empoasca pirisuga; dose 45 ml): 78.9%
LC50 [2]: 3.13 µg/mL
LC50 [3]: 10.9 µg/mL
LC50 [4]: 0.09 µg/mL
